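Test compounds were applied to cells in 96-well plates for 48 hours at 5 doses. TGI is the concentration that stops growth completely.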
Experiments:
Test in all cases: NCI tumour cell line growth inhibition, 48 h
NCI-H522 lung = system: NCI-H522 lung
OVCAR-8 ovarian = system: OVCAR-8 ovarian
HCT-116 colon = system: HCT-116 colon
RXF 393 renal = system: RXF 393 renal
CCRF-CEM leukemia = system: CCRF-CEM leukemia
M19-MEL melanoma = system: M19-MEL melanoma
SK-OV-3 ovarian = system: SK-OV-3 ovarian
UACC-257 melanoma = system: UACC-257 melanoma
RPMI-8226 leukemia = system: RPMI-8226 leukemia
EKVX NSCLC = system: EKVX NSCLC
SF-268 CNS = system: SF-268 CNS
KM20L2 colon = system: KM20L2 colon
SF-295 CNS = system: SF-295 CNS
MALME-3M melanoma = system: MALME-3M melanoma
CAKI-1 renal = system: CAKI-1 renal
SK-MEL-5 melanoma = system: SK-MEL-5 melanoma
HCT-15 colon = system: HCT-15 colon
SK-MEL-28 melanoma = system: SK-MEL-28 melanoma
HL-60(TB) leukemia = system: HL-60(TB) leukemia
NCI-H23 lung = system: NCI-H23 lung
IGROV1 ovarian = system: IGROV1 ovarian
LOX IMVI melanoma = system: LOX IMVI melanoma
K-562 leukemia = system: K-562 leukemia
DLD-1 colon = system: DLD-1 colon
SN12C renal = system: SN12C renal
SW-620 colon = system: SW-620 colon
HOP-18 NSCLC = system: HOP-18 NSCLC
OVCAR-3 ovarian = system: OVCAR-3 ovarian
SK-MEL-2 melanoma = system: SK-MEL-2 melanoma
OVCAR-4 ovarian = system: OVCAR-4 ovarian
SF-539 CNS = system: SF-539 CNS
KM12 colon = system: KM12 colon
DMS 114 small cell lung = system: DMS 114 small cell lung
UACC-62 melanoma = system: UACC-62 melanoma
A549 NSCLC = system: A549 NSCLC
786-0 renal = system: 786-0 renal
RXF-631 renal = system: RXF-631 renal
U251 CNS = system: U251 CNS
TK-10 renal = system: TK-10 renal
COLO 205 colon = system: COLO 205 colon
XF 498 CNS = system: XF 498 CNS
NCI-H460 lung = system: NCI-H460 lung
M14 melanoma = system: M14 melanoma
HT29 colon = system: HT29 colon
ACHN renal = system: ACHN renal
LXFL 529 NSCLC = system: LXFL 529 NSCLC
SNB-75 CNS = system: SNB-75 CNS
SNB-19 CNS = system: SNB-19 CNS
HOP-92 NSCLC = system: HOP-92 NSCLC
SNB-78 CNS = system: SNB-78 CNS
DMS 273 small cell lung = system: DMS 273 small cell lung
MOLT-4 leukemia = system: MOLT-4 leukemia
UO-31 renal = system: UO-31 renal
HOP-62 NSCLC = system: HOP-62 NSCLC

C=C1CCCC2[C@](C)(CC3=C(O)C(=O)C=C(OC)C3=O)[C@@H](C)CC[C@]12C (some centres not stated)
TGI (NCI-H522 lung): 28.5 µM
TGI (OVCAR-8 ovarian): > 100 µM
TGI (HCT-116 colon): 17.7 µM
TGI (RXF 393 renal): 10.6 µM
TGI (CCRF-CEM leukemia): 14.6 µM
TGI (M19-MEL melanoma): 5.95 µM
TGI (SK-OV-3 ovarian): 62.2 µM
TGI (UACC-257 melanoma): 16.4 µM
TGI (RPMI-8226 leukemia): 40.2 µM
TGI (EKVX NSCLC): > 100 µM
TGI (SF-268 CNS): > 100 µM
TGI (KM20L2 colon): 31.8 µM
TGI (SF-295 CNS): 13.7 µM
TGI (MALME-3M melanoma): 9.93 µM
TGI (CAKI-1 renal): 27.9 µM
TGI (SK-MEL-5 melanoma): 9.35 µM
TGI (HCT-15 colon): 49.6 µM
TGI (SK-MEL-28 melanoma): > 100 µM
TGI (HL-60(TB) leukemia): 9.59 µM
TGI (NCI-H23 lung): 12.5 µM
TGI (IGROV1 ovarian): 16 µM
TGI (LOX IMVI melanoma): > 100 µM
TGI (K-562 leukemia): > 100 µM
TGI (DLD-1 colon): 69.1 µM
TGI (SN12C renal): > 100 µM
TGI (SW-620 colon): 53.3 µM
TGI (HOP-18 NSCLC): 8.59 µM
TGI (OVCAR-3 ovarian): 31.3 µM
TGI (SK-MEL-2 melanoma): 12.5 µM
TGI (OVCAR-4 ovarian): 78.2 µM
TGI (SF-539 CNS): 16 µM
TGI (KM12 colon): 17.4 µM
TGI (DMS 114 small cell lung): 7.61 µM
TGI (UACC-62 melanoma): 6.63 µM
TGI (A549 NSCLC): 11 µM
TGI (786-0 renal): 18.3 µM
TGI (RXF-631 renal): > 100 µM
TGI (U251 CNS): > 100 µM
TGI (TK-10 renal): > 100 µM
TGI (COLO 205 colon): 21.2 µM
TGI (XF 498 CNS): 56.7 µM
TGI (NCI-H460 lung): 17.5 µM
TGI (M14 melanoma): 5.03 µM
TGI (HT29 colon): 36.1 µM
TGI (ACHN renal): 47.7 µM
TGI (LXFL 529 NSCLC): 27.2 µM
TGI (SNB-75 CNS): > 100 µM

CCN(CC)c1ccc(N=C2C=C(Cl)C(=O)c3ncccc32)c(C)c1
TGI (OVCAR-8 ovarian): > 100 µM
TGI (HCT-116 colon): 11.6 µM
TGI (RXF 393 renal): 17.5 µM
TGI (CCRF-CEM leukemia): > 100 µM
TGI (M19-MEL melanoma): 68.5 µM
TGI (SK-OV-3 ovarian): 67.9 µM
TGI (UACC-257 melanoma): 7.29 µM
TGI (RPMI-8226 leukemia): 90.3 µM
TGI (EKVX NSCLC): 36.8 µM
TGI (KM20L2 colon): 26.9 µM
TGI (SNB-19 CNS): 89.4 µM
TGI (SF-295 CNS): 35.9 µM
TGI (MALME-3M melanoma): 10.5 µM
TGI (CAKI-1 renal): 12 µM
TGI (SK-MEL-5 melanoma): 11.3 µM
TGI (HCT-15 colon): 20.8 µM
TGI (SK-MEL-28 melanoma): 91 µM
TGI (HL-60(TB) leukemia): 4.72 µM
TGI (NCI-H23 lung): 11.3 µM
TGI (HOP-92 NSCLC): 7.2 µM
TGI (IGROV1 ovarian): 32 µM
TGI (LOX IMVI melanoma): 26.9 µM
TGI (K-562 leukemia): 11.1 µM
TGI (DLD-1 colon): 17 µM
TGI (SN12C renal): 55.1 µM
TGI (SW-620 colon): 17.3 µM
TGI (HOP-18 NSCLC): 9.75 µM
TGI (OVCAR-3 ovarian): 5.04 µM
TGI (SK-MEL-2 melanoma): > 100 µM
TGI (SNB-78 CNS): 43.4 µM
TGI (OVCAR-4 ovarian): 18.3 µM
TGI (SF-539 CNS): 28 µM
TGI (DMS 273 small cell lung): 16.8 µM
TGI (DMS 114 small cell lung): 8.19 µM
TGI (UACC-62 melanoma): 24.7 µM
TGI (A549 NSCLC): 48.5 µM
TGI (786-0 renal): 12.2 µM
TGI (RXF-631 renal): 35.3 µM
TGI (U251 CNS): 18 µM
TGI (TK-10 renal): 29.2 µM
TGI (COLO 205 colon): 15.8 µM
TGI (XF 498 CNS): 18.7 µM
TGI (NCI-H460 lung): 39 µM
TGI (M14 melanoma): 8.31 µM
TGI (HT29 colon): 30.2 µM
TGI (ACHN renal): 11.1 µM
TGI (SNB-75 CNS): 88.3 µM
TGI (MOLT-4 leukemia): 13.8 µM
TGI (UO-31 renal): 41.6 µM
TGI (HOP-62 NSCLC): 25 µM

— PubChem BioAssay (NCI)
